Results from patent US20250388565A1, “ESTROGEN RECEPTOR ALPHA DEGRADERS AND METHODS OF USE THEREOF” (Relay Therapeutics, Inc., priority 2022, published 2025).

molecular target: T1, ERα protein (HiBiT-tagged) in ESR1_HiBiT KI MCF7 cells (Homo sapiens, UniProt P03372); assay: Nano Glo HiBiT Lytic Degradation Assay; assay type: cell-based; details: 6 hours with compound, 14-point dose response 1:3, bell-shape curve fit, half-maximal effect of first Hill model, read-out: MCF7 ESR1 HiBiT - (DC50)
T1 sequence (P03372 1-595): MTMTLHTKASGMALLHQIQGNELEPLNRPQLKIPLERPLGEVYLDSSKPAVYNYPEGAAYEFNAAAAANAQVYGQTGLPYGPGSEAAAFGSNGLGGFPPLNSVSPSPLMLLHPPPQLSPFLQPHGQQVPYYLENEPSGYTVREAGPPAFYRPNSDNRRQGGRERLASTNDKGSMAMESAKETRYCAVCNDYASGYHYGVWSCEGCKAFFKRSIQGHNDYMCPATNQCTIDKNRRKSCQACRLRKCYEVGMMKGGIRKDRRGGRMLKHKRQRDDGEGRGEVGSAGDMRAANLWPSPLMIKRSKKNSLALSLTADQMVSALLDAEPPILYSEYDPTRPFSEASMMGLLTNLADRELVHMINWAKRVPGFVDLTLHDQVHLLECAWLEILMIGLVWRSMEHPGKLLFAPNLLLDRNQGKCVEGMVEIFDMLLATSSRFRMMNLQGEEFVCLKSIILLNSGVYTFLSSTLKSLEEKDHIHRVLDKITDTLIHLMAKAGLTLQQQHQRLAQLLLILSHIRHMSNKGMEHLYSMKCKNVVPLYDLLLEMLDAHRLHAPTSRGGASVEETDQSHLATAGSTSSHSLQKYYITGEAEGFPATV
Outline: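 Lytic Nano-Glo HiBiT luminescence quantified ERα remaining after a 6 h, 37° C compound exposure of MCF7 cells carrying endogenous HiBiT-tagged ESR1. Dosing used 14 threefold dilutions from a 10 mM DMSO stock (0.1% DMSO final), run in duplicate. Signals were corrected for cell-free background and expressed relative to DMSO, and DC50 came from a bell-shaped curve fit (first Hill model half-maximum).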

Structure (SMILES) | DC50 [nM]
O=C1CC[C@H](N2Cc3cc(N4CCN(CC5CCN(c6ccc([C@H]7c8ccc(O)cc8C(F)(F)C[C@H]7C7CCCC7)cc6)CC5)CC4)ccc3C2=O)C(=O)N1 [Compound I-234, (S)-3-(5-(4-((1-(4-((1S,2S)-2-cyclopentyl-4,4-difluoro-6-hydroxy-1,2,3,4-tetrahydronaphthalen-1-yl)phenyl)piperidin-4-yl)methyl)piperazin-1-yl)-1-oxoisoindolin-2-yl)piperidine-2,6-dione] | 959
O=C1CC[C@H](N2Cc3cc(N4CCN(CC5CCN(c6ccc([C@H]7c8ccc(O)cc8CC[C@H]7C7CCCCC7)cc6F)CC5)CC4)ccc3C2=O)C(=O)N1 [Compound I-236, (S)-3-(5-(4-((1-(4-((1S,2S)-2-cyclohexyl-6-hydroxy-1,2,3,4-tetrahydronaphthalen-1-yl)-2-fluorophenyl)piperidin-4-yl)methyl)piperazin-1-yl)-1-oxoisoindolin-2-yl)piperidine-2,6-dione] | 72
C[C@@]1(C2CCCCC2)CCc2cc(O)ccc2[C@@H]1c1ccc(N2CCC(CN3CCN(c4ccc5c(c4)CN([C@H]4CCC(=O)NC4=O)C5=O)CC3)CC2)cc1 [Compound I-237, (S)-3-(5-(4-((1-(4-((1S,2S)-2-cyclohexyl-6-hydroxy-2-methyl-1,2,3,4-tetrahydronaphthalen-1-yl)phenyl)piperidin-4-yl)methyl)piperazin-1-yl)-1-oxoisoindolin-2-yl)piperidine-2,6-dione] | ≥ 10000
C[C@]1(C2CCCCC2)CCc2cc(O)ccc2[C@H]1c1ccc(N2CCC(CN3CCN(c4ccc5c(c4)CN([C@H]4CCC(=O)NC4=O)C5=O)CC3)CC2)cc1 [Compound I-238, (S)-3-(5-(4-((1-(4-((1R,2R)-2-cyclohexyl-6-hydroxy-2-methyl-1,2,3,4-tetrahydronaphthalen-1-yl)phenyl)piperidin-4-yl)methyl)piperazin-1-yl)-1-oxoisoindolin-2-yl)piperidine-2,6-dione] | 4
C[C@]1(C2CCCCC2)CCc2cc(O)ccc2[C@@H]1c1ccc(N2CCC(CN3CCN(c4ccc5c(c4)CN([C@H]4CCC(=O)NC4=O)C5=O)CC3)CC2)cc1 [Compound I-239, (S)-3-(5-(4-((1-(4-((1S,2R)-2-cyclohexyl-6-hydroxy-2-methyl-1,2,3,4-tetrahydronaphthalen-1-yl)phenyl)piperidin-4-yl)methyl)piperazin-1-yl)-1-oxoisoindolin-2-yl)piperidine-2,6-dione] | 1990
O=C1CC[C@H](N2Cc3cc(N4CCN(CC5CCN(c6ccc([C@H]7c8ccc(O)cc8CC[C@H]7C78CC9CC(CC(C9)C7)C8)cc6)CC5)CC4)ccc3C2=O)C(=O)N1 [Compound I-241, (S)-3-(5-(4-((1-(4-((1S,2R)-2-((3S,5S,7S)-adamantan-1-yl)-6-hydroxy-1,2,3,4-tetrahydronaphthalen-1-yl)phenyl)piperidin-4-yl)methyl)piperazin-1-yl)-1-oxoisoindolin-2-yl)piperidine-2,6-dione] | 370
O=C1CC[C@H](N2Cc3cc(N4CCN(CC5CCN(c6ccc([C@H]7c8ccc(O)cc8CO[C@H]7C7CCC7)cc6)CC5)CC4)ccc3C2=O)C(=O)N1 [Compound I-244, (S)-3-(5-(4-((1-(4-((3S,4S)-3-cyclobutyl-7-hydroxyisochroman-4-yl)phenyl)piperidin-4-yl)methyl)piperazin-1-yl)-1-oxoisoindolin-2-yl)piperidine-2,6-dione] | 4
O=C1CC[C@H](N2Cc3cc(N4CCN(CC5CCN(c6ccc([C@H]7c8ccc(O)cc8CO[C@@H]7C7CCCCC7)cc6)CC5)CC4)ccc3C2=O)C(=O)N1 [Compound I-248, (S)-3-(5-(4-((1-(4-((3R,4S)-3-cyclohexyl-7-hydroxyisochroman-4-yl)phenyl)piperidin-4-yl)methyl)piperazin-1-yl)-1-oxoisoindolin-2-yl)piperidine-2,6-dione] | 21
O=C1CC[C@H](N2Cc3cc(N4CCN(CC5CCN(c6ccc([C@@H]7c8ccc(O)cc8CO[C@H]7C7CCCCC7)cc6)CC5)CC4)ccc3C2=O)C(=O)N1 [Compound I-249, (S)-3-(5-(4-((1-(4-((3S,4R)-3-cyclohexyl-7-hydroxyisochroman-4-yl)phenyl)piperidin-4-yl)methyl)piperazin-1-yl)-1-oxoisoindolin-2-yl)piperidine-2,6-dione] | 0.61
O=C1CC[C@H](N2Cc3cc(N4CCN(CC5CCN(c6ccc([C@H]7c8ccc(O)cc8CO[C@H]7C7CCCCC7)cc6)CC5)CC4)ccc3C2=O)C(=O)N1 [Compound I-250, (S)-3-(5-(4-((1-(4-((3S,4S)-3-cyclohexyl-7-hydroxyisochroman-4-yl)phenyl)piperidin-4-yl)methyl)piperazin-1-yl)-1-oxoisoindolin-2-yl)piperidine-2,6-dione] | 64
C[C@H]1O[C@@H](C2CCCCC2)[C@@H](c2ccc(N3CCC(CN4CCN(c5ccc6c(c5)CN([C@H]5CCC(=O)NC5=O)C6=O)CC4)CC3)cc2)c2ccc(O)cc21 [Compound I-251, (S)-3-(5-(4-((1-(4-((1R,3S,4S)-3-cyclohexyl-7-hydroxy-1-methylisochroman-4-yl)phenyl)piperidin-4-yl)methyl)piperazin-1-yl)-1-oxoisoindolin-2-yl)piperidine-2,6-dione] | 44
O=C1CC[C@H](N2Cc3cc(N4CCN(CC5CCN(c6ccc([C@@H]7c8ccc(O)cc8CC[C@@]78CCc7ccccc78)cc6)CC5)CC4)ccc3C2=O)C(=O)N1 [Compound I-260] | 0.75

Results, then the compound that gave them:

DC50 [nM] | Structure (SMILES)
≥ 10000 | O=C1CC[C@H](N2Cc3cc(N4CCN(CC5CCN(c6ccc([C@H]7c8ccc(O)cc8C(F)(F)C[C@H]7CC7CCCC7)cc6)CC5)CC4)ccc3C2=O)C(=O)N1 [Compound I-229, (3S)-3-[5-[4-[[1-[4-[(1S,2R)-2-(cyclopentylmethyl)-4,4-difluoro-6-hydroxy-tetralin-1-yl]phenyl]-4-piperidyl]methyl]piperazin-1-yl]-1-oxo-isoindolin-2-yl]piperidine-2,6-dione]
3 | C[C@@]1(C2CCCCC2)CCc2cc(O)ccc2[C@H]1c1ccc(N2CCC(CN3CCN(c4ccc5c(c4)CN([C@H]4CCC(=O)NC4=O)C5=O)CC3)CC2)cc1 [Compound I-240, (S)-3-(5-(4-((1-(4-((1R,2S)-2-cyclohexyl-6-hydroxy-2-methyl-1,2,3,4-tetrahydronaphthalen-1-yl)phenyl)piperidin-4-yl)methyl)piperazin-1-yl)-1-oxoisoindolin-2-yl)piperidine-2,6-dione]
0.23 | O=C1CC[C@H](N2Cc3cc(N4CCN(CC5CCN(c6ccc([C@@H]7c8ccc(O)cc8CO[C@@H]7C7CCC7)cc6)CC5)CC4)ccc3C2=O)C(=O)N1 [Compound I-245, (S)-3-(5-(4-((1-(4-((3R,4R)-3-cyclobutyl-7-hydroxyisochroman-4-yl)phenyl)piperidin-4-yl)methyl)piperazin-1-yl)-1-oxoisoindolin-2-yl)piperidine-2,6-dione]
3300 | C[C@]1(C2CCCCC2)OCc2cc(O)ccc2[C@@H]1c1ccc(N2CCC(CN3CCN(c4ccc5c(c4)CN([C@H]4CCC(=O)NC4=O)C5=O)CC3)CC2)cc1 [Compound I-257, (S)-3-(5-(4-((1-(4-((3R,4S)-3-cyclohexyl-7-hydroxy-3-methylisochroman-4-yl)phenyl)piperidin-4-yl)methyl)piperazin-1-yl)-1-oxoisoindolin-2-yl)piperidine-2,6-dione]
1 | C[C@@]1(C2CCCCC2)OCc2cc(O)ccc2[C@H]1c1ccc(N2CCC(CN3CCN(c4ccc5c(c4)CN([C@H]4CCC(=O)NC4=O)C5=O)CC3)CC2)cc1 [Compound I-258, (S)-3-(5-(4-((1-(4-((3S,4R)-3-cyclohexyl-7-hydroxy-3-methylisochroman-4-yl)phenyl)piperidin-4-yl)methyl)piperazin-1-yl)-1-oxoisoindolin-2-yl)piperidine-2,6-dione]
98 | O=C1CC[C@H](N2Cc3cc(N4CCN(CC5CCN(c6ccc([C@H]7c8ccc(O)cc8CC[C@]78CCc7ccccc78)cc6)CC5)CC4)ccc3C2=O)C(=O)N1 [Compound I-259, (S)-3-(5-(4-((1-(4-((1R,1′R)-6′-hydroxy-2,3,3′,4′-tetrahydro-1′H-spiro[indene-1,2′-naphthalen]-1′-yl)phenyl)piperidin-4-yl)methyl)piperazin-1-yl)-1-oxoisoindolin-2-yl)piperidine-2,6-dione]
2 | O=C1CC[C@H](N2Cc3cc(N4CCN(CC5CCN(c6ccc([C@@H]7c8ccc(O)cc8CC[C@]78CCc7ccccc78)cc6)CC5)CC4)ccc3C2=O)C(=O)N1 [Compound I-262, (S)-3-(5-(4-((1-(4-((1R,1′S)-6′-hydroxy-2,3,3′,4′-tetrahydro-1′H-spiro[indene-1,2′-naphthalen]-1′-yl)phenyl)piperidin-4-yl)methyl)piperazin-1-yl)-1-oxoisoindolin-2-yl)piperidine-2,6-dione]
